In ChEMBL document CHEMBL5537208 (J Med Chem, 2024):
In brackets after ≈: the same amount, converted by molar mass.

How the values were obtained:
[1] = biological target: T1, Orexin/Hypocretin receptor type 1 (Homo sapiens, UniProt O43613)
T1 sequence (O43613 whole entry): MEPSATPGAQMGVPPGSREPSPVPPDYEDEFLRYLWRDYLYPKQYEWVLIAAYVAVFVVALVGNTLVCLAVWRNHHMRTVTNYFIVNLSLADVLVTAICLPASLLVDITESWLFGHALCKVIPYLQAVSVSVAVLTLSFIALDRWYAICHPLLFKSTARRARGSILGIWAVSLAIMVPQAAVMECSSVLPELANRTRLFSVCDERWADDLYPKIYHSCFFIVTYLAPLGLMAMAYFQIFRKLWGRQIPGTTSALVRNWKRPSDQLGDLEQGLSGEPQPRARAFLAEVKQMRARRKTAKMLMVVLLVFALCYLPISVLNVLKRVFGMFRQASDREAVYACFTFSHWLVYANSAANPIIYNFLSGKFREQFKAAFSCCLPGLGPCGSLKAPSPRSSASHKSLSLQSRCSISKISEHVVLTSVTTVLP
Description: Antagonist activity at human OX1R expressed in CHO cells preincubated for 120 mins followed by orexin-A addition by FLIPR assay

Orexin receptor type 2 = biological target: T2, Orexin receptor type 2 (Homo sapiens, UniProt O43614)
T2 sequence (O43614 whole entry): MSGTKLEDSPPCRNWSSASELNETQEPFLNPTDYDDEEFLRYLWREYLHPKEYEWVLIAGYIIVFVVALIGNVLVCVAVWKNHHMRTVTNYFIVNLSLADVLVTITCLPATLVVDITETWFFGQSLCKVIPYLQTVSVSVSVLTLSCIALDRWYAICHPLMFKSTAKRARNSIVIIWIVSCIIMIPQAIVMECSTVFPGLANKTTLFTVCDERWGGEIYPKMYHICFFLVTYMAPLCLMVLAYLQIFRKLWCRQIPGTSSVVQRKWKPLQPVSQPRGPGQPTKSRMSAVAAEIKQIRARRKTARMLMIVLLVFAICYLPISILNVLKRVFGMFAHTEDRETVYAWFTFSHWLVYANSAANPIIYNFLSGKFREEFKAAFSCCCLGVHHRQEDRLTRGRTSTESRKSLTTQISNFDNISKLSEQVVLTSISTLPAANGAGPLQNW
Description: Antagonist activity at human OX2R expressed in CHO cells preincubated for 120 mins followed by orexin-A addition by FLIPR assay

in vitro [2] = conditions: human, liver microsomes
Cytochrome P450 3A4 = Cytochrome P450 3A4 (Homo sapiens, UniProt P08684); assay: Inhibition of CYP3A4 (unknown origin) using testosterone as substrate; format: ADME
[3] = Apparent permeability across apical to basal side in MDCKI-MDR1 cells; format: ADME, cell-based, Canis lupus familiaris; conditions: dog, MDCK-MDR1
[4] = Apparent permeability across basal to apical side in MDCKI-MDR1 cells; format: ADME, cell-based, Canis lupus familiaris; conditions: dog, MDCK-MDR1
in vitro [5] = conditions: rat, liver microsomes
in vitro [6] = conditions: dog, MDCK-MDR1
Description: Efflux ratio in MDCKI-MDR1 cells

[7] = Unbound drug concentration in Wistar rat plasma at 1 mg/kg, po measured after 1 hr by LC-tandem MS analysis; format: ADME, organism-based; conditions: in vivo
[8] = Unbound drug concentration in Wistar rat brain at 1 mg/kg, po measured after 1 hr by LC-tandem MS analysis; format: ADME, organism-based; conditions: in vivo
[9] = Drug concentration in cerebrospinal fluid of Wistar rat at 1 mg/kg, po measured after 1 hr by LC-tandem MS analysis; format: ADME, organism-based; conditions: read-out: Ct
[10] = Ratio of unbound drug concentration in Wistar rat brain to plasma at 1 mg/kg, po measured after 1 hr by LC-tandem MS analysis; format: ADME, organism-based; conditions: read-out: K(p,uu,brain)
[11] = Solubility of compound in FeSSIF; format: ADME
[12] = biological target: T3, Orexin/Hypocretin receptor type 1 (Rattus norvegicus) (UniProt P56718); conditions: Wistar, dose 1.0 mg/kg, route po, time 1.0 hrs
T3 sequence (whole entry): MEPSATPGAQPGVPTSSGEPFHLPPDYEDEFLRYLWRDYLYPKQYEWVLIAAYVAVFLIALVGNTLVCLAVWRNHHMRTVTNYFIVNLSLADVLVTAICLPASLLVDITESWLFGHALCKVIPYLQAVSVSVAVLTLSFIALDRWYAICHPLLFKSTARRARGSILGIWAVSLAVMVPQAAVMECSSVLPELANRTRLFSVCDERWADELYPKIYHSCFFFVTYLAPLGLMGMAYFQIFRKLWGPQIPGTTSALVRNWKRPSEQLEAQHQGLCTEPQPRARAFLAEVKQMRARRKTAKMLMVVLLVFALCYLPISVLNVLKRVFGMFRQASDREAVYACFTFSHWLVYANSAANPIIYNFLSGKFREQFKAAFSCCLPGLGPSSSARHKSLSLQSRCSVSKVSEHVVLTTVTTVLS

[13] = Drug concentration in Wistar rat Cerebrospinal fluid at 30 mg/kg, po measured after 1 hr by LC-tandem MS analysis; format: ADME, organism-based; conditions: read-out: Ct
[14] = Unbound drug concentration in Wistar rat brain at 30 mg/kg, po measured after 1 hr by LC-tandem MS analysis; format: ADME, organism-based; conditions: in vivo
[15] = In vivo receptor occupancy at OX2R in Wistar rat brain at 30 mg/kg, po measured after 1 hr relative to control; format: functional
[16] = Drug concentration in Wistar rat Cerebrospinal fluid at 100 mg/kg, po measured after 1 hr by LC-tandem MS analysis; format: ADME, organism-based; conditions: read-out: Ct
[17] = Unbound drug concentration in Wistar rat brain at 100 mg/kg, po measured after 1 hr by LC-tandem MS analysis; format: ADME, organism-based; conditions: in vivo
[18] = In vivo receptor occupancy at OX2R in Wistar rat brain at 100 mg/kg, po measured after 1 hr relative to control; format: functional

Chain of Cytochrome P450 3A4 (P08684 whole entry): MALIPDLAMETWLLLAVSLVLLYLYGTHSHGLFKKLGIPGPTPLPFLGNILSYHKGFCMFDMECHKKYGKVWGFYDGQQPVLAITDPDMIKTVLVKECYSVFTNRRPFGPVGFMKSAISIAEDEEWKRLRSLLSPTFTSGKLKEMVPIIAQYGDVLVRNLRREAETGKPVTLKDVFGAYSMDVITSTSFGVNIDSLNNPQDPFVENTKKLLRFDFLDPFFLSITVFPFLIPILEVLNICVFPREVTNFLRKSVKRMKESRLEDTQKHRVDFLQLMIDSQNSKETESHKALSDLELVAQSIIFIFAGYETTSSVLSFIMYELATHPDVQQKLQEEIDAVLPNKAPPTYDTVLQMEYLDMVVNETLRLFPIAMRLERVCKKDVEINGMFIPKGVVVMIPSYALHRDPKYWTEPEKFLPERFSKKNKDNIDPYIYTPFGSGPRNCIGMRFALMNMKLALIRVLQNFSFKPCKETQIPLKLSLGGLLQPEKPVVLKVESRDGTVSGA

IC50 [1] [nM]	IC50 (Orexin receptor type 2) [nM]	microsomal CLint at 1 µM (in vitro [2]) [µL/min/mg]	Structure (SMILES)	other results
1.4	184	391	Cc1ccc(C(=O)N2CCOC[C@H]2Cc2ccc(C)c(-n3nccn3)c2)c(-n2nccn2)c1	
	666		Cc1ccc(-n2nccn2)c(C(=O)N2CCNC[C@H]2Cc2cccc(-n3nccn3)c2)c1	IC50 (Cytochrome P450 3A4): 25000 nM
	4.4		Cc1cccc(-c2sc(C)nc2C(=O)N2CCC[C@H]2Cc2cccc(-c3ncon3)c2)c1	
4.4			O=C(c1ccccc1-c1ncccn1)N1CCC[C@H]1Cc1cccc(-n2nccn2)c1	
4	215	139	Cc1ccc(C(=O)N2C[C@@H](C)OC[C@H]2Cc2cccc(-n3nccn3)c2)c(-n2nccn2)c1	
1.9		89	Cc1ccc(C(=O)N2CCOC[C@H]2Cc2cc(Cl)cc(-n3nccn3)c2)c(-n2nccn2)c1	
37	1040	101	O=C(c1ccc(F)cc1-n1nccn1)N1CCOC[C@H]1Cc1cccc(-n2nccn2)c1	
34	1830	239	Cc1ccc(C(=O)N2[C@H](Cc3cccc(-n4nccn4)c3)COC[C@@H]2C)c(-n2nccn2)c1	
6.2	1430	157	COc1ccc(C(=O)N2CCOC[C@H]2Cc2cccc(-n3nccn3)c2)c(-n2nccn2)c1	Papp A→B [3]: 8.7 ×10⁻⁶ cm/s; Papp B→A [4]: 62.4 ×10⁻⁶ cm/s; microsomal CLint at 1 µM (in vitro [5]): > 1250 µL/min/mg; efflux ratio (in vitro [6]): 7.2
	1.7	634	Cc1ccc(-n2nccn2)c(C(=O)N2CCCC[C@H]2Cc2cccc(-n3nccn3)c2)c1	microsomal CLint at 1 µM (in vitro [5]): > 1250 µL/min/mg
5.5		204	Cc1cccc(C(=O)N2CCOC[C@H]2Cc2cccc(-n3nccn3)c2)c1-n1nccn1	Papp A→B [3]: 16.1 ×10⁻⁶ cm/s; Papp B→A [4]: 66 ×10⁻⁶ cm/s; Cp(f) [7]: 278 nM; Drug uptake(free) [8]: 260 nM; concentration at 1 h [9]: 1000 nM; Kp uu at 1 h [10]: 0.94; solubility [11]: 337 µg/mL (≈ 785 µM); microsomal CLint at 1 µM (in vitro [5]): > 1250 µL/min/mg
3.1	595	158	Cc1ccc(C(=O)N2CCOC[C@H]2Cc2cc(-n3nccn3)ccc2Cl)c(-n2nccn2)c1	
	1550		O=C(c1c(F)cccc1-n1nccn1)N1CCOC[C@H]1Cc1cccc(-n2nccn2)c1	
109			Cc1cccc(-n2nccn2)c1C(=O)N1CCOC[C@H]1Cc1cccc(-n2nccn2)c1	
11	265	322	Cc1ccc(C(=O)N2C[C@H](C)OC[C@H]2Cc2cccc(-n3nccn3)c2)c(-n2nccn2)c1	
		104	O=C(c1cccc(F)c1-n1nccn1)N1CCOC[C@H]1Cc1cccc(-n2nccn2)c1	
		59	O=C(c1ccccc1-n1nccn1)N1CCOC[C@H]1Cc1cccc(-n2nccn2)c1	

IC50 [1] [nM]	IC50 (Orexin receptor type 2) [nM]	microsomal CLint at 1 µM (in vitro [2]) [µL/min/mg]	Structure (SMILES)	other results
1.7	214	119	Cc1ccc(-n2nccn2)c(C(=O)N2CCOC[C@H]2Cc2cccc(-n3nccn3)c2)c1	Papp A→B [3]: 15.3 ×10⁻⁶ cm/s; Papp B→A [4]: 55.9 ×10⁻⁶ cm/s; Cp(f) [7]: 36 nM; Drug uptake(free) [8]: 19 nM; concentration at 1 h [9]: 51 nM; Kp uu at 1 h [10]: 0.53; solubility [11]: 46 µg/mL (≈ 107 µM); Occ [12]: > 91%; microsomal CLint at 1 µM (in vitro [5]): > 1250 µL/min/mg
17	100		Cc1nc(C(=O)N2CCC[C@H]2Cc2cccc(-n3nccn3)c2)c(-c2ccc(F)cc2)s1	
21	2020	170	Cc1ccc(C(=O)N2CCOC[C@H]2Cc2cccc(-n3nccn3)c2F)c(-n2nccn2)c1	
9.5			Cc1cccc(-c2ncncc2C(=O)N2CCC[C@H]2Cc2cccc(-n3nccn3)c2)c1	
	20		Cc1cccc(-c2sc(C)nc2C(=O)N2CCC[C@H]2Cc2cccc(-n3cccn3)c2)c1	
4.1	1110	208	Cc1ccc(C(=O)N2CCOC[C@H]2Cc2cc(-n3nccn3)ccc2C)c(-n2nccn2)c1	
3	784	121	COc1ccc(-n2nccn2)c(C(=O)N2CCOC[C@H]2Cc2cccc(-n3nccn3)c2)c1	Papp A→B [3]: 6.1 ×10⁻⁶ cm/s; Papp B→A [4]: 60.6 ×10⁻⁶ cm/s; microsomal CLint at 1 µM (in vitro [5]): > 1250 µL/min/mg; efflux ratio (in vitro [6]): 10
		99	Cc1ccc(C(=O)N2CCOC[C@H]2Cc2cc(-n3nccn3)ccc2F)c(-n2nccn2)c1	Cp(f) [7]: 177 nM; Drug uptake(free) [8]: 307 nM; concentration at 1 h [9]: 550 nM; Kp uu at 1 h [10]: 1.73; concentration at 1 h [13]: 45 nM; Drug uptake(free) [14]: 10 nM; Occ [15]: 13%; concentration at 1 h [16]: 550 nM; Drug uptake(free) [17]: 307 nM; Occ [18]: 82%
5.9			O=C(c1ccccc1-n1nccn1)N1CCC[C@H]1Cc1cccc(-n2nccn2)c1	
0.7	7	> 1250	Cc1ccc(-n2nccn2)c(C(=O)N2CCC[C@H]2Cc2cccc(-n3nccn3)c2)c1	microsomal CLint at 1 µM (in vitro [5]): > 1250 µL/min/mg
		301	Cc1ccc(C(=O)N2CCO[C@H](C)[C@H]2Cc2cccc(-n3nccn3)c2)c(-n2nccn2)c1	
3.5		164	Cc1ccc(C(=O)N2CCOC[C@H]2Cc2cc(F)cc(-n3nccn3)c2)c(-n2nccn2)c1	
3.6	12		Cc1nc(C(=O)N2CCC[C@H]2Cc2cccc(-n3nccn3)c2)c(-c2ccc3c(c2)OCO3)s1	
		327	Cc1ccc(C(=O)N2CCO[C@@H](C)[C@H]2Cc2cccc(-n3nccn3)c2)c(-n2nccn2)c1	
1		623	Cc1ccc(C(=O)N2[C@H](Cc3cccc(-n4nccn4)c3)COC[C@H]2C)c(-n2nccn2)c1	
		227	O=C(c1cc(F)ccc1-n1nccn1)N1CCOC[C@H]1Cc1cccc(-n2nccn2)c1	
2.8	2430	292	Cc1ccc(C(=O)N2CCOC[C@H]2Cc2cccc(-n3nccn3)c2)c(-n2nccn2)c1C	Papp A→B [3]: 11.8 ×10⁻⁶ cm/s; Papp B→A [4]: 59.4 ×10⁻⁶ cm/s; Cp(f) [7]: 72 nM; Drug uptake(free) [8]: 147 nM; concentration at 1 h [9]: 370 nM; Kp uu at 1 h [10]: 2.04; solubility [11]: 293 µg/mL (≈ 661 µM); Occ [12]: > 98%; microsomal CLint at 1 µM (in vitro [5]): > 1250 µL/min/mg; efflux ratio (in vitro [6]): 5
